Literature values, collected in patent US20260345654A1, “2,8-DIHYDROXYQUINOLINE GLUCURONIDE DERIVATIVES WITH ENHANCED PROPERTIES FOR USE AS ANTICANCER, ANTIVIRAL, ANTIMICROBIAL, AND OTHER THERAPEUTIC APPLICATIONS” (priority 2023, published 2026).

Columns and labels:
[1] = system: A2780, A549 and MDA-MB-231 cells; conditions: addition of Cu^+2 to the media; cited from earlier work
cancer cells = conditions: Zhai 2010; Oliveri 2012; cited from earlier work
tumor cells = conditions: addition of docosahexaenoic acid (DHA); Ding 2006; cited from earlier work
[2] = system: viral attachment to ACE receptor; conditions: COVID 19; copper chelation not required; cited from earlier work
[3] = Japanese population, 1970's; cited from earlier work

Oc1c(I)cc(Cl)c2cccnc12 [CQ, 5-chloro-7-iodo-8-hydroxyquinoline]
cytotoxicity change with addition of Cu^+2 [1]: significantly increased the cytotoxicity
effect of copper on anti-cancer activity (cancer cells): enhancer or prerequisite of the anti-cancer activity
anticancer activity with omega fatty acids (tumor cells): increase synergistically
antiviral activity mechanism [2]: blocking viral attachment to ACE receptor
serious side effect [3]: CQ-associated subacute myelo-optic neuropathy
